# Laboratory results from patent US9765056B2, “Indole and pyrrole compounds, a process for their preparation and pharmaceutical compositions containing them” (LES LABORATOIRES SERVIER, priority 2013, dated 2017).
# Counter-ions that a name gives are not always drawn.
# Experiments:
# [1] = tested on: RS4;11 leukaemia tumour line; assay: In vitro cytotoxicity, Microculture Tetrazolium Assay (MTT); type: cell-based; details: Homo sapiens; RS4;11 cells, 48 hours exposure
# Procedure: The cytotoxicity studies were carried out on the RS4;11 leukaemia tumour line.
# The cells are distributed onto microplates and exposed to the test compounds for 48 hours. The cell viability is then quantified by a colorimetric assay, the Microculture Tetrazolium Assay (Cancer Res., 1987, 47, 939-942).
# Bcl-2 protein = Bcl-2 protein (histag-Bcl-2, UniProtKB P10415) (Homo sapiens (Human), UniProt P10415); assay: Inhibition of Bcl-2 by the fluorescence polarisation technique; type: binding; details: for IC50: fluorescence polarisation test, method A, or method B where underlined (underlining not visible), read-out: IC50 (nM) Bcl-2 FP
# Bcl-2 protein, sequence (P10415 whole entry): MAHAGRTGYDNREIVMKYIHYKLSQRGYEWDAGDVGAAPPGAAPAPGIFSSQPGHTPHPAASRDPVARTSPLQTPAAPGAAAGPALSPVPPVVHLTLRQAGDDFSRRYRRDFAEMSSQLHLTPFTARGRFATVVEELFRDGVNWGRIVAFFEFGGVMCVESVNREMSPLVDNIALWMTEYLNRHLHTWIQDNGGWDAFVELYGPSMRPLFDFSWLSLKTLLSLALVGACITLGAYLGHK
# Source text: Inhibition of Bcl-2 by the fluorescence polarisation technique
Compound,IC50 [1] [nM],IC50 (Bcl-2 protein) [nM],inhibition at 10 µM (Bcl-2 protein; read-out: percentage fluorescence polarisation inhibition (Bcl-2 FP)) [%]
"COc1cc(-n2cc(C(=O)N(c3ccccc3)c3ccc(F)cc3)c3ccccc32)c(C(=O)N2Cc3ccccc3C[C@H]2CN2CCN(C)CC2)cc1O [Example 190, N-(4-Fluorophenyl)-1-{4-hydroxy-5-methoxy-2-[(3S)-3-[(4-methylpiperazin-1-yl)methyl]-1,2,3,4-tetrahydroisoquinoline-2-carbonyl]phenyl}-N-phenyl-1H-indole-3-carboxamide dihydrochloride]",645,13.6,
"CN1CCN(C[C@@H]2Cc3ccccc3CN2C(=O)c2cc(F)c(Cl)cc2-n2cc(C(=O)N(c3ccc(O)cc3)c3ccc4c(ccn4C)c3)c3ccccc32)CC1 [Example 78, 1-(5-Chloro-4-fluoro-2-{[(3S)-3-[(4-methylpiperazin-1-yl)methyl]-3,4-dihydroisoquinolin-2(1H)-yl]carbonyl}phenyl)-N-(4-hydroxyphenyl)-N-(1-methyl-1H-indol-5-yl)-1H-indole-3-carboxamide hydrochloride]",81.4,3.7,
"O=C(c1cn(-c2cc(Cl)ccc2C(=O)N2Cc3ccccc3C[C@H]2CN2CCCCC2)c2ccccc12)N(c1ccccc1)c1ccc(O)cc1 [Example 171, 1-{5-Chloro-2-[(3S)-3-(piperidin-1-ylmethyl)-1,2,3,4-tetrahydroisoquinoline-2-carbonyl}phenyl]-N-(4-hydroxyphenyl)-N-phenyl-1H-indole-3-carboxamide]",1050,71.8,
"Cc1ccc(N(C(=O)c2cn(-c3cc(Cl)ccc3C(=O)N3Cc4ccccc4C[C@H]3CN3CCN(C)CC3)c3ccccc23)c2ccc(O)cc2)cc1 [Example 74, 1-(5-Chloro-2-{[(3S)-3-[(4-methylpiperazin-1-yl)methyl]-3,4-dihydroisoquinolin-2(1H)-yl]carbonyl}phenyl)-N-(4-hydroxyphenyl)-N-(4-methylphenyl)-1H-indole-3-carboxamide]",162,4.2,
"Cc1cc(C(=O)N(c2ccc(O)cc2)c2ccc3c(ccn3C)c2)cn1-c1cc2occc2cc1C(=O)N1Cc2ccccc2C[C@H]1CN1CCOCC1 [Example 119, N-(4-Hydroxyphenyl)-5-methyl-N-(1-methyl-1H-indol-5-yl)-1-(5-{[(3S)-3-(morpholin-4-ylmethyl)-3,4-dihydroisoquinolin-2(1H)-yl]carbonyl}-1-benzofuran-6-yl)-1H-pyrrole-3-carboxamide hydrochloride]",96.4,28.4,
"Cc1cc(C(=O)N(c2ccc(O)cc2)c2ccc3c(ccn3C)c2)cn1-c1cc(Br)ccc1C(=O)N1Cc2ccccc2C[C@H]1CN1CCN(C)CC1 [Example 70, 1-(5-Bromo-2-{[(3S)-3-[(4-methylpiperazin-1-yl)methyl]-3,4-dihydroisoquinolin-2(1H)-yl]carbonyl}phenyl)-N-(4-hydroxyphenyl)-5-methyl-N-(1-methyl-1H-indol-5-yl)-1H-pyrrole-3-carboxamide hydrochloride]",63.8,2.9,
"Cc1ccc(N(C(=O)c2cn(-c3cc4c(cc3C(=O)N3Cc5ccccc5C[C@H]3CN3CCN(C)CC3)OCO4)c3ccccc23)c2ccc3[nH]ncc3c2)cc1 [Example 68, N-(1H-Indazol-5-yl)-N-(4-methylphenyl)-1-(6-{[(3S)-3-[(4-methylpiperazin-1-yl)methyl]-3,4-dihydroisoquinolin-2(1H)-yl]carbonyl}-1,3-benzodioxol-5-yl)-1H-indole-3-carboxamide hydrochloride]",856,79.7,
"Cc1cc(C(=O)N(c2ccc(O)cc2)c2ccc3[nH]ccc3c2)cn1-c1cc(Br)ccc1C(=O)N1Cc2ccccc2C[C@H]1C(=O)N1CCN(C)CC1 [Example 101, 1-(5-Bromo-2-{[(3S)-3-[(4-methylpiperazin-1-yl)carbonyl]-3,4-dihydroisoquinolin-2(1H)-yl]carbonyl}phenyl)-N-(4-hydroxyphenyl)-N-(1H-indol-5-yl)-5-methyl-1H-pyrrole-3-carboxamide]",1880,99.1,
"Cc1ccc(N(C(=O)c2cn(-c3cc4c(cc3C(=O)N3Cc5ccccc5C[C@H]3CN3CCN(C)CC3)OCO4)c3ccccc23)C2CCNCC2)cc1 [Example 98, N-(4-Methylphenyl)-1-(6-{[(3S)-3-[(4-methylpiperazin-1-yl)methyl]-3,4-dihydroisoquinolin-2(1H)-yl]carbonyl}-1,3-benzodioxol-5-yl)-N-(piperidin-4-yl)-1H-indole-3-carboxamide bis-hydrochloride]",1880,,45.1
"Cc1cc(C(=O)N(c2ccccc2)c2ccc(O)cc2)cn1-c1cc(Br)c(Br)cc1C(=O)N1Cc2ccccc2C[C@H]1CN1CCN(C)CC1 [Example 16, 1-(4,5-Dibromo-2-{[(3S)-3-[(4-methylpiperazin-1-yl)methyl]-3,4-dihydroisoquinolin-2(1H)-yl]carbonyl}phenyl)-N-(4-hydroxyphenyl)-5-methyl-N-phenyl-1H-pyrrole-3-carboxamide]",656,29.6,
"CN(C)C[C@@H]1Cc2ccccc2CN1C(=O)c1cc2c(cc1-n1cc(C(=O)N(c3ccccc3)c3ccc(O)cc3)c3ccccc31)OCO2 [Example 180, 1-{6-[(3S)-3-[(Dimethylamino)methyl]-1,2,3,4-tetrahydroisoquinoline-2-carbonyl]-2H-1,3-benzodioxol-5-yl}-N-(4-hydroxyphenyl)-N-phenyl-1H-indole-3-carboxamide hydrochloride]",210,11,
"CN1CCN(C[C@@H]2Cc3ccccc3CN2C(=O)c2cc3c(cc2-n2cc(C(=O)N(c4ccccc4)c4ccc(O)cc4)c4ccccc42)OCO3)CC1 [Example 164, N-(4-Hydroxyphenyl)-1-{6-[(3S)-3-[(4-methylpiperazin-1-yl)methyl]-1,2,3,4-tetrahydroisoquinoline-2-carbonyl]-2H-1,3-benzodioxol-5-yl}-N-phenyl-1H-indole-3-carboxamide dihydrochloride]",132,7.8,
"Cc1cc(C(=O)N(c2ccc(O)cc2)c2ccc3[nH]ccc3c2)cn1-c1cc(Br)ccc1C(=O)N1Cc2ccccc2C[C@H]1CN1CCN(C)CC1 [Example 46, 1-(5-Bromo-2-{[(3S)-3-[(4-methylpiperazin-1-yl)methyl]-3,4-dihydroisoquinolin-2(1H)-yl]carbonyl}phenyl)-N-(4-hydroxyphenyl)-N-(1H-indol-5-yl)-5-methyl-1H-pyrrole-3-carboxamide]",93.4,8.4,
"NC[C@@H]1Cc2ccccc2CN1C(=O)c1ccc(Cl)cc1-n1cc(C(=O)N(c2ccccc2)c2ccc(O)cc2)c2ccccc21 [Example 156, 1-{2-[(3S)-3-(Aminomethyl)-1,2,3,4-tetrahydroisoquinoline-2-carbonyl]-5-chlorophenyl}-N-(4-hydroxyphenyl)-N-phenyl-1H-indole-3-carboxamide]",450,11.7,
"NC[C@@H]1Cc2ccccc2CN1C(=O)c1cc2c(cc1-n1cc(C(=O)N(c3ccccc3)c3ccc(O)cc3)c3ccccc31)OCO2 [Example 153, 1-{6-[(3S)-3-(Aminomethyl)-1,2,3,4-tetrahydroisoquinoline-2-carbonyl]-2H-1,3-benzodioxol-5-yl}-N-(4-hydroxyphenyl)-N-phenyl-1H-indole-3-carboxamide]",237,286,
